A short description of data set [1]: method code SF, from DOI: 10.1021/jm00063a015, PMID: 8388471.

Structures are written as SMILES.

The values that follow come from the SangsterLogP compilation.

What is called logP is the decadic logarithm of the partition coefficient of the neutral form, usually between octanol and water. Read a low logP as a more hydrophilic compound.

`CN(Cc1ccccc1)C(=O)C(Cc1ccccc1)NC(=O)C(Cc1cn(C=O)c2ccccc12)NC(=O)CC1NC(=O)C2C3CCC(CC3)N2C1=O` (stereo unspecified) showed a logP in data set [1] of 3.47. Compound `CN(Cc1ccccc1)C(=O)C(Cc1ccccc1)NC(=O)C(Cc1cn(C(=O)CCC(=O)O)c2ccccc12)NC(=O)CC1NC(=O)C2C3CCC(CC3)N2C1=O` (stereo unspecified) yielded a logP of 3.15. The same measure, in the same setting: the figure for `CN(Cc1ccccc1)C(=O)C(Cc1ccccc1)NC(=O)C(Cc1c[nH]c2ccccc12)NC(=O)CC1NC(=O)C2C3CCC(CC3)N2C1=O` (stereo unspecified) is 3.18; for `COC(=O)n1cc(CC(NC(=O)CC2NC(=O)C3C4CCC(CC4)N3C2=O)C(=O)NC(Cc2ccccc2)C(=O)N(C)Cc2ccccc2)c2ccccc21` (stereo unspecified) it is 4.05.

In the case of `CCCCCCCC(=O)n1cc(C[C@@H](NC(=O)CC2NC(=O)C3C4CCC(CC4)N3C2=O)C(=O)N[C@@H](Cc2ccccc2)C(=O)N(C)Cc2ccccc2)c2ccccc21` (stereo partly specified), the logP came to 7.29. Compound `CN(Cc1ccccc1)C(=O)C(Cc1ccccc1)NC(=O)C(Cc1cn(C(=O)OCc2ccccc2)c2ccccc12)NC(=O)CC1NC(=O)C2C3CCC(CC3)N2C1=O` (stereo unspecified) came in with a logP in data set [1] of 5.66. `CN(Cc1ccccc1)C(=O)C(Cc1ccccc1)NC(=O)C(Cc1cn(C(=O)OCCCCCCN)c2ccccc12)NC(=O)CC1NC(=O)C2C3CCC(CC3)N2C1=O` (stereo unspecified) registered a logP of 2.95.

In turn, `CN(Cc1ccccc1)C(=O)[C@H](Cc1ccccc1)NC(=O)[C@@H](Cc1cn(C(=O)OC(C)(C)C)c2ccccc12)NC(=O)CC1NC(=O)C2C3CCC(CC3)N2C1=O` (stereo partly specified) had a logP of 5.33. On the same count and under the same terms, the figure for `CN(Cc1ccccc1)C(=O)C(Cc1ccccc1)NC(=O)C(Cc1cn(C(=O)CCCCCCN)c2ccccc12)NC(=O)CC1NC(=O)C2C3CCC(CC3)N2C1=O` (stereo unspecified) is 2.48; for `CN(Cc1ccccc1)C(=O)C(Cc1ccccc1)NC(=O)C(Cc1cn(C)c2ccccc12)NC(=O)CC1NC(=O)C2C3CCC(CC3)N2C1=O` (stereo unspecified) it is 3.85; for `CC(=O)n1cc(CC(NC(=O)CC2NC(=O)C3C4CCC(CC4)N3C2=O)C(=O)NC(Cc2ccccc2)C(=O)N(C)Cc2ccccc2)c2ccccc21` (stereo unspecified) it is 3.69.
